Measurements: patent publication US20080039455A1, “PYRAZOLOPYRIMIDINES AND SALTS THEREOF, PHARMACEUTICAL COMPOSITIONS COMPRISING SAME, METHODS OF PREPARING SAME AND USES OF SAME” (priority 2006, published 2008)
Structures can show the parent of a compound that is named as a salt.

Target: T1, human recombinant ALK1 (GST fused to ALK1 intracellular domain [His142-Gln503]) (Homo sapiens, UniProt P37023)
T1 construct: GST fused to ALK1 intracellular domain [His142-Gln503]; made in house
T1 sequence (P37023 142-503): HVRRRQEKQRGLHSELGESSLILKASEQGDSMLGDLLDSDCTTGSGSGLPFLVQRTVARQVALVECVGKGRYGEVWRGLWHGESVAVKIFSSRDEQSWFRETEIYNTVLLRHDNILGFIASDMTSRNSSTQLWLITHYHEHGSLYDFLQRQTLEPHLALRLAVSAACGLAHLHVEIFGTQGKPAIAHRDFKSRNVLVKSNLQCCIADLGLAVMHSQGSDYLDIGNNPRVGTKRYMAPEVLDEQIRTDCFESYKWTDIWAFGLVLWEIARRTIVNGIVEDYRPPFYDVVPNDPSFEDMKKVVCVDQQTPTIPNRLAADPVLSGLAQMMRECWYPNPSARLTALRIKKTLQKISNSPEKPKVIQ
Assay: ALK1-Kinase Flashplate-Assay
Assay type: biochemical
Settings: 0.5 μM ATP, biotinylated α-casein substrate; read-out: Assay 1 (ALK1-Kinase Flashplate-Assay IC50 class)
Outline: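 Radiometric Flashplate assay at 20 °C: GST-ALK1 intracellular domain (5 ng/well) with 1 μM biotinylated bovine α-casein, 0.5 μM ATP plus [γ-33P]ATP in Tris pH 8.0, 1 mM MnCl2, 1% or 5% DMSO, 60 min. Normalised to no-inhibitor (0%) and 10 mM EDTA (100%); IC50 by 4-parameter fit.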

Row | IC50 | Compound
1 | 1000 to 10000 nM | c1csc(-c2cnn3ccc(NC4CCCNC4)nc23)c1 (stereo not drawn) [Example 496, Piperidin-3-yl-(3-thiophen-2-yl-pyrazolo[1,5-a]pyrimidin-5-yl)-amine mono TFA salt]
2 | 1000 to 10000 nM | OCCNc1ccn2ncc(-c3ccc(Cl)cc3)c2n1 [Example 121, 2-[3-(4-Chloro-phenyl)-pyrazolo[1,5-a]pyrimidin-5-ylamino]-ethanol]
3 | 1000 to 10000 nM | COc1ccc(Nc2ccn3ncc(-c4cccc(C(C)=O)c4)c3n2)cn1 [Example 437, 1-{3-[5-(6-Methoxy-pyridin-3-ylamino)-pyrazolo[1,5-a]pyrimidin-3-yl]-phenyl}-ethanone]
4 | 1000 to 10000 nM | COc1ccc(-c2cnn3ccc(NCc4cccnc4)nc23)cn1 [Example 171, [3-(6-Methoxy-pyridin-3-yl)-pyrazolo[1,5-a]pyrimidin-5-yl]-pyridin-3-ylmethyl-amine]
5 | < 1000 nM | Cc1ccc(S(=O)(=O)Nc2ccc(Nc3ccn4ncc(-c5ccncc5)c4n3)cc2)cc1 [Example 51, 4-Methyl-N-[4-(3-pyridin-4-yl-pyrazolo[1,5-a]pyrimidin-5-ylamino)-phenyl]-benzenesulfonamide]
6 | 1000 to 10000 nM | c1ccc(-c2cnn3ccc(NCc4cccnc4)nc23)cc1 [Example 376, (3-Phenyl-pyrazolo[1,5-a]pyrimidin-5-yl)-pyridin-3-ylmethyl-amine]
7 | < 1000 nM | COc1ccc(-c2cnn3ccc(NCCO)nc23)cc1OC [Example 73, 2-[3-(3,4-Dimethoxy-phenyl)-pyrazolo[1,5-a]pyrimidin-5-ylamino]-ethanol]
8 | < 1000 nM | Oc1ccc(-c2cnn3ccc(NCc4ccncc4)nc23)cc1 [Example 66, 4-{5-[(Pyridin-4-ylmethyl)-amino]-pyrazolo[1,5-a]pyrimidin-3-yl}-phenol]
9 | 1000 to 10000 nM | Cc1ccc(Nc2ccn3ncc(-c4cccc(CO)c4)c3n2)cc1NS(C)(=O)=O [Example 431, N-{5-[3-(3-Hydroxymethyl-phenyl)-pyrazolo[1,5-a]pyrimidin-5-ylamino]-2-methyl-phenyl}-methanesulfonamide]
10 | 1000 to 10000 nM | CN(C)CCNC(=O)c1cccc(-c2cnn3ccc(Nc4ccc(Oc5ccccc5)cc4)nc23)c1 [Example 329, N-(2-Dimethylamino-ethyl)-3-[5-(4-phenoxy-phenylamino)-pyrazolo[1,5-a]pyrimidin-3-yl]-benzamide]
11 | < 1000 nM | COc1cccc(-c2cnn3ccc(Nc4ccc(O)cc4)nc23)c1 [Example 192, 4-[3-(3-Methoxy-phenyl)-pyrazolo[1,5-a]pyrimidin-5-ylamino]-phenol]
12 | 1000 to 10000 nM | CN(C)CCNC(=O)c1cccc(-c2cnn3ccc(Nc4ccc(O)cc4)nc23)c1 [Example 326, N-(2-Dimethylamino-ethyl)-3-[5-(4-hydroxy-phenylamino)-pyrazolo[1,5-a]pyrimidin-3-yl]-benzamide]
13 | 1000 to 10000 nM | Oc1ccc(-c2cnn3ccc(NCc4cccnc4)nc23)cc1 [Example 293, 4-{5-[(Pyridin-3-ylmethyl)-amino]-pyrazolo[1,5-a]pyrimidin-3-yl}-phenol]
14 | < 1000 nM | Cc1ccc(Nc2ccn3ncc(-c4cnn(C)c4)c3n2)cc1NS(C)(=O)=O [Example 210, N-{2-Methyl-5-[3-(1-methyl-1H-pyrazol-4-yl)-pyrazolo[1,5-a]pyrimidin-5-ylamino]-phenyl}-methanesulfonamide]
15 | 1000 to 10000 nM | CC(C)c1ccc(Nc2ccn3ncc(-c4ccncc4)c3n2)cc1 [Example 36, (4-Isopropyl-phenyl)-(3-pyridin-4-yl-pyrazolo[1,5-a]pyrimidin-5-yl)-amine]
16 | 1000 to 10000 nM | CC(=O)c1cccc(-c2cnn3ccc(Nc4ccc(C(C)C)cc4)nc23)c1 [Example 266, 1-{3-[5-(4-Isopropyl-phenylamino)-pyrazolo[1,5-a]pyrimidin-3-yl]-phenyl}-ethanone]
17 | 1000 to 10000 nM | CCN(CC)CCCNc1ccn2ncc(-c3ccc(C)c(Cl)c3)c2n1 [Example 492, N′-[3-(3-Chloro-4-methyl-phenyl)-pyrazolo[1,5-a]pyrimidin-5-yl]-N,N-diethyl-propane-1,3-diamine]
18 | < 1000 nM | CC(=O)Nc1cccc(-c2cnn3ccc(Nc4ccc5[nH]ccc5c4)nc23)c1 [Example 19, N-{3-[5-(1H-Indol-5-ylamino)-pyrazolo[1,5-a]pyrimidin-3-yl]-phenyl}-acetamide]
19 | 1000 to 10000 nM | COc1ccc(Nc2ccn3ncc(-c4cccc(NS(C)(=O)=O)c4)c3n2)cn1 [Example 197, N-{3-[5-(6-Methoxy-pyridin-3-ylamino)-pyrazolo[1,5-a]pyrimidin-3-yl]-phenyl}-methanesulfonamide]
20 | < 1000 nM | Fc1ccc(-c2cnn3ccc(NCc4ccncc4)nc23)cc1 [Example 398, [3-(4-Fluoro-phenyl)-pyrazolo[1,5-a]pyrimidin-5-yl]-pyridin-4-ylmethyl-amine]

Row | IC50 | Compound
21 | 1000 to 10000 nM | COc1ccc(Nc2ccn3ncc(-c4cnn(Cc5ccccc5)c4)c3n2)cn1 [Example 199, [3-(1-Benzyl-1H-pyrazol-4-yl)-pyrazolo[1,5-a]pyrimidin-5-yl]-(6-methoxy-pyridin-3-yl)-amine]
22 | 1000 to 10000 nM | c1ccc(Nc2ccn3ncc(-c4cccs4)c3n2)cc1 [Example 242, Phenyl-(3-thiophen-2-yl-pyrazolo[1,5-a]pyrimidin-5-yl)-amine]
23 | < 1000 nM | COc1ccc(-c2cnn3ccc(Nc4ccc5[nH]ccc5c4)nc23)cc1OC [Example 17, [3-(3,4-Dimethoxy-phenyl)-pyrazolo[1,5-a]pyrimidin-5-yl]-(1H-indol-5-yl)-amine]
24 | < 1000 nM | COc1cc(-c2cnn3ccc(NC4CCC(O)CC4)nc23)cc(OC)c1OC (stereo not drawn) [Example 474, 4-[3-(3,4,5-Trimethoxy-phenyl)-pyrazolo[1,5-a]pyrimidin-5-ylamino]-cyclohexanol]
25 | < 1000 nM | COc1ccc(-c2cnn3ccc(NC4CCC(O)CC4)nc23)cc1OC (stereo not drawn) [Example 69, 4-[3-(3,4-Dimethoxy-phenyl)-pyrazolo[1,5-a]pyrimidin-5-ylamino]-cyclohexanol]
26 | 1000 to 10000 nM | c1cncc(CNc2ccn3ncc(-c4ccc5c(c4)OCO5)c3n2)c1 [Example 290, (3-Benzo[1,3]dioxol-5-yl-pyrazolo[1,5-a]pyrimidin-5-yl)-pyridin-3-ylmethyl-amine]
27 | < 1000 nM | c1cncc(CNc2ccn3ncc(-c4cccc5ccccc45)c3n2)c1 [Example 377, (3-Naphthalen-1-yl-pyrazolo[1,5-a]pyrimidin-5-yl)-pyridin-3-ylmethyl-amine]
28 | 1000 to 10000 nM | COc1ccc(-c2cnn3ccc(Nc4ccc(OC)nc4)nc23)cc1 [Example 425, [3-(4-Methoxy-phenyl)-pyrazolo[1,5-a]pyrimidin-5-yl]-(6-methoxy-pyridin-3-yl)-amine]
29 | < 1000 nM | COc1cc(-c2cnn3ccc(Nc4ccc(C(C)C)cc4)nc23)ccc1O [Example 277, 4-[5-(4-Isopropyl-phenylamino)-pyrazolo[1,5-a]pyrimidin-3-yl]-2-methoxy-phenol]
30 | 1000 to 10000 nM | CC(=O)Nc1ccc(Nc2ccn3ncc(-c4cccc(N(C)C)c4)c3n2)cc1 [Example 331, N-{4-[3-(3-Dimethylamino-phenyl)-pyrazolo[1,5-a]pyrimidin-5-ylamino]-phenyl}-acetamide]
31 | 1000 to 10000 nM | OC1CCC(Nc2ccn3ncc(-c4ccc(F)cc4)c3n2)CC1 (stereo not drawn) [Example 401, 4-[3-(4-Fluoro-phenyl)-pyrazolo[1,5-a]pyrimidin-5-ylamino]-cyclohexanol]
32 | < 1000 nM | COc1ccc(Nc2ccn3ncc(-c4cnn(C)c4)c3n2)cn1 [Example 198, (6-Methoxy-pyridin-3-yl)-[3-(1-methyl-1H-pyrazol-4-yl)-pyrazolo[1,5-a]pyrimidin-5-yl]-amine]
33 | < 1000 nM | CC(C)c1ccc(Nc2ccn3ncc(-c4cccc(C(=O)NCCN(C)C)c4)c3n2)cc1 [Example 1, N-(2-dimethylamino-ethyl)-3-[5-(4-isopropyl-phenylamino)-pyrazolo[1,5-a]pyrimidin-3-yl]-benzamide]
34 | < 1000 nM | Oc1cccc(-c2cnn3ccc(NC4CCC(O)CC4)nc23)c1 (stereo not drawn) [Example 156, 3-[5-(4-Hydroxy-cyclohexylamino)-pyrazolo[1,5-a]pyrimidin-3-yl]-phenol]
35 | < 1000 nM | Cc1ccc(Nc2ccn3ncc(-c4cccc(NS(C)(=O)=O)c4)c3n2)cc1NS(C)(=O)=O [Example 209, N-{5-[3-(3-Methanesulfonylamino-phenyl)-pyrazolo[1,5-a]pyrimidin-5-ylamino]-2-methyl-phenyl]-methanesulfonamide]
36 | < 1000 nM | O=C(O)c1ccc(-c2cnn3ccc(Nc4ccc(Oc5ccccc5)cc4)nc23)cc1 [Example 255, 4-[5-(4-Phenoxy-phenylamino)-pyrazolo[1,5-a]pyrimidin-3-yl]-benzoic acid]
37 | 1000 to 10000 nM | COc1cccc(-c2cnn3ccc(Nc4cccc(Cl)c4)nc23)c1 [Example 444, (3-Chloro-phenyl)-[3-(3-methoxy-phenyl)-pyrazolo[1,5-a]pyrimidin-5-yl]-amine]
38 | 1000 to 10000 nM | OCc1cccc(-c2cnn3ccc(Nc4cccc(Cl)c4)nc23)c1 [Example 312, {3-[5-(3-Chloro-phenylamino)-pyrazolo[1,5-a]pyrimidin-3-yl]-phenyl}-methanol]
39 | 1000 to 10000 nM | CC(=O)Nc1cccc(-c2cnn3ccc(Nc4cccc(Cl)c4)nc23)c1 [Example 453, N-{3-[5-(3-Chloro-phenylamino)-pyrazolo[1,5-a]pyrimidin-3-yl]-phenyl}-acetamide]
